Biological target: pHipA (Escherichia coli, UniProt P23874)
Assay: ITC
Details: no binding

Sequence of pHipA (P23874 whole entry, looked up): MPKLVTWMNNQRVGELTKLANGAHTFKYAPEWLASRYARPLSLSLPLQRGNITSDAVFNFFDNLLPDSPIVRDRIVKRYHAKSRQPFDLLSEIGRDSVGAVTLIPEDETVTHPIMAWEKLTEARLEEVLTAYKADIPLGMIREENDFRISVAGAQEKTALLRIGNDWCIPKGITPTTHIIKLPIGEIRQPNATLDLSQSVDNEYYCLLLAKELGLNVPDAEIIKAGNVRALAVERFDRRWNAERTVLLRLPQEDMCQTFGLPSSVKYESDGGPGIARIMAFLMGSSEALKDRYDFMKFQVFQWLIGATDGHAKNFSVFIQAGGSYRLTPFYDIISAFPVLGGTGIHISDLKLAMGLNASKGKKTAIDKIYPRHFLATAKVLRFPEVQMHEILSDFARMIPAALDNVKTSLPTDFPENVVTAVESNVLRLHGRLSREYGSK

## Nc1ncnc2c1ncn2[C@@H]1O[C@H](COP(=O)(O)OP(=O)(O)NP(=O)(O)O)[C@@H](O)[C@H]1O [AMPPNP]
  ITC: revealed no interaction between ATP or the nonhydrolyzable ATP analogue, AMPPNP

— paper PMC4831868 (Cell reports, 2012)
